Experimental data published in US10941063B2 (priority 2015, dated 2021).
Entries after “also recorded” stand apart in the source; their conditions may differ. Where two headings read alike, the source gives them in different places.

Experiments:
Total bacteria = assay: Removal of bacteria from high H2S water, Luminultra ATP test method (Example 17); format: cell-based
Experimental: A high H2S water sample near Odessa, Tex., USA was tested for H2S and bacteria removal.
A 600 mL portion of the water was transferred by siphon pump to a 1 L beaker outfitted with a magnetic stir bar, pH probe, ORP probe and a sealed cover with a small opening for adding chemicals. The solution was mixed at a moderate rate at room temperature using a magnetic stir plate while a 17% hydrogen peroxide solution was added in a 1.9:1 molar ratio of oxidant to sulfide to remove about 80% of the H2S. […] After 10 minutes of reaction time aluminum coagulant and anionic flocculation polymer dispersion were added causing a rapid flocculation and settling of most of the pale yellow solids. The clarified supernatant was decanted to a second beaker outfitted the same as the first.
A 500 mL portion of the supernatant above was mixed while a 2.1% sodium peracetate solution was added in a 1.6:1 molar ratio of oxidant to sulfide to remove the remaining 20% of the H2S and promote a final clarification and bacteria removal. […] After 10 minutes of reaction time aluminum coagulant and anionic flocculation polymer dispersion were added causing a rapid flocculation and settling of the pale solids.

[1] = for time until ORP rose above 100 mV indicating H2S fully oxidized: 80 mg/L H2S water
Experimental: Hydrogen peroxide is an inexpensive oxidant for H2S removal, but is slow acting relative to several other oxidants. Shortening the reaction time or contact time required in a water treatment process reduces the volume of contact basins or increases the throughput of a treatment process such as that described in Example 17.
A portion of the 80 mg/L H2S water was treated by mixing into it a 17% wt/wt solution of hydrogen peroxide such that the molar ratio of hydrogen peroxide to sulfide was about 5.7:1. Hydrogen peroxide was added in excess such that it was not a limiting reagent in the oxidation reaction. The ORP and pH of the water was monitored to track the oxidation rate of H2S. FIG. 3 depicts the progression of ORP and pH over time during oxidation.
A second portion of the 80 mg/L H2S water was treated by mixing into it a 17% wt/wt solution of hydrogen peroxide such that the molar ratio of hydrogen peroxide to sulfide was about 5.7:1. A small portion of muriatic acid (about 34% hydrochloric acid solution) was added with the hydrogen peroxide to slightly lower the pH to between 6.5 and 7.0 thereby converting at least a portion of the NaHS to H2S and accelerate the reaction rate. FIG. 4 depicts the progression of ORP and pH over time during oxidation.

[2] = test system: acid producing bacteria (APB); assay: Uintah basin produced water: acid producing bacteria level; format: cell-based; conditions: for APB: untreated 100-1000
Experimental: (§1) Produced water from the Uintah basin in eastern Utah was tested for sulfide treatment and clarification with sodium peracetate solution. The untreated water appeared green-grey in color, was pH 8.1 and contained about 30 mg/L H2S (as S^2), 90 mg/L organic or other sulfides (as S^2−), and 90 mg/L sulfate. Total iron was about 5 mg/L therefore iron sulfide was only a minor sulfide component.
(§2) A first water sample was treated by a “partial oxidation” in Table II with sodium peracetate oxidant solution. The water was stirred in a closed container while sodium peracetate oxidant was added in a 1.25:1 molar ratio of oxidant to H2S. Aluminum coagulant (about 35 mg/L as Al) was added with the oxidant. The mixture was stirred for 30 seconds and then about 5 mg/L of anionic polymer was added. Large floe formed rapidly over the next 60 seconds and then stirring was stopped. The flocculated solids settled rapidly leaving a clear, colorless supernatant. The “partial oxidation” treatment removed hydrogen sulfide and reduced acid producing bacteria (APB) and sulfate reducing bacteria (SRB) levels to 1-10 cells/mL for each. The ORP increased from −166 mV to 88 mV vs SHE (oxidant was fully consumed) and there was a 20 ppm increase in sulfate concentration due to oxidation of a small portion of sulfur-containing contaminants to sulfate.
(§3) A second water sample was treated by a “full oxidation” in Table II with sodium peracetate oxidant solution. The water was stirred in a closed container while sodium peracetate oxidant was added in a 3.8:1 molar ratio of oxidant to H2S. Aluminum coagulant (about 35 mg/L as Al) was added with the oxidant. The mixture was stirred for 30 seconds and then about 5 mg/L of anionic polymer was added. Large floe formed rapidly over the next 60 seconds and then stirring was stopped. The flocculated solids settled rapidly leaving a clear, colorless supernatant. […]

[3] = 7% sodium peracetate solution in clean water; cited from earlier work
[4] = test system: sulfate reducing bacteria (SRB); assay: Uintah basin produced water: sulfate reducing bacteria level; format: cell-based; conditions: for SRB: untreated 10-100
Experimental: as §1, §2, §3

[5] = Stability of sodium peracetate oxidant solution (half-life, loss of active oxidant); format: physicochemical
Source text: However, the sodium peracetate oxidant solutions were discovered to be stable enough, when diluted to below 1% concentration, to have a working time practical for producing large volumes of treatment fluids in a tank for down-hole well treatment applications including hydrogen sulfide mitigation, bacteria reduction, iron sulfide scale cleaning and polymer gel breaking.
In some embodiments, to conduct a well treatment a large, diluted volume of sodium peracetate oxidant solution is preferably staged in a carrier fluid having no oxidant demand. The carrier fluid may include fresh water, salt water, treated production water and, optionally, combined with other treatment chemicals such as hydrochloric acid, citric acid, acetic acid, acid-containing micellar solvent, corrosion inhibitor, and iron chelant. Lower concentrations, less than 1%, of sodium peracetate oxidant may be staged for a limited period of time with small losses in active oxidant. For example, a 0.25% solution is expected to lose about 4-6% of its active sodium peracetate per hour at 20° C. A container, tank or tanker truck of sodium peracetate solution must be vented to release oxygen gas byproduct evolved from the oxidant as it naturally degrades in a carrier fluid.
In this example a diluted sodium peracetate oxidant solution is staged in 500 barrel (21,000 gal) quantities produced in a 55 minute period. […]

[6] = test system: naturally occurring microbes; assay: Preservation of guar mixture against microbial growth; format: cell-based; conditions: about 65 mg/L oxidant, at least a week at room temperature
Experimental: The use of the sodium peracetate oxidant formulation was tested for the depolymerization and break down of guar gum.
The guar mixture was made by rapidly mixing 10 g/L food grade guar gum powder into a 10 g/L sodium chloride solution in distilled water. The blended mixture was heated to about 35-40° C. in a heated water bath for at least one hour to fully hydrate the guar. The mixture appeared translucent with fine, milky white suspended solids. […] Several 60 mL portions of the guar mixture were prepared for different treatments as summarized in Table I. The first was a control sample to which no oxidant was added. The remaining samples had increasing amounts of sodium peracetate oxidant added to them. […] The oxidant was rapidly mixed with the guar mixture resulting in a pale yellow color. The mixtures were placed in a water bath at about 35-40° C. and the yellow color gradually faded away over the next hour. After two hours the samples were cooled to room temperature.
The control sample remained viscous for a day, but lost viscosity after sitting at room temperature overnight and microbial growth as a biofilm was visible after a week. […] The fine, suspended solids settled out leaving a clear, colorless solution. A second treatment of the last sample reduced the viscosity further by a small amount.

[7] = Treated Water Full Oxidation (3.8:1)
[8] = Treated Water Partial Oxidation (1.25:1)
[9] = full oxidation (3.8:1), after 4 months at room temperature

Compound | ATP and corresponding bacteria population reduced by (Total bacteria; first step: hydrogen peroxide 1.9:1, then coagulant and polymer) | ATP concentration in supernatant (Total bacteria; first step: hydrogen peroxide 1.9:1, then coagulant and polymer, untreated 280 pg/mL) | time until ORP rose above 100 mV indicating H2S fully oxidized ([1]; 17% wt/wt hydrogen peroxide, 5.7:1 molar to sulfide, no acid) | time until ORP rose above 100 mV indicating H2S fully oxidized ([1]; hydrogen peroxide 5.7:1 with muriatic acid, pH between 6.5 and 7.0) | rate of H2S oxidation when acid was added with the oxidant ([1]; hydrogen peroxide 5.7:1 with muriatic acid versus without) | APB [2, 7] | APB [2, 8] | grow back of APB [2, 9] | ATP and corresponding bacteria population reduced by, relative to the untreated water (Total bacteria; after second step: sodium peracetate 1.6:1 following hydrogen peroxide step) | ATP concentration in supernatant (Total bacteria; second step: sodium peracetate 1.6:1 after hydrogen peroxide step) | half-life [3] | SRB [4, 7] | SRB [4, 8] | grow back of SRB [4, 9] | loss of active oxidant concentration ([5]; 0.2% diluted solution, in 55 minutes at 25° C.) | loss of active sodium peracetate per hour ([5]; 0.25% solution, 20° C.) | microbial growth in guar mixture (preservative effect) [6]
OO [hydrogen peroxide] | about 95% | 14 pg/mL | about 22 minutes | about 9 minutes | approximately doubled |  |  |  |  |  |  |  |  |  |  |  | 
sodium peracetate [sodium peracetate oxidant solution] |  |  |  |  |  | <1 cells/mL | 1-10 cells/mL | no detectable grow back | 99% | 3 pg/mL | about 80 minutes | <1 cells/mL | 1-10 cells/mL | no detectable grow back | ~4% | 4-6% | did act as a preservative; also recorded: no microbial growth was observed
